≈ marks a conversion by molar mass, not a printed value.
Experiments:
Aspergillus fumigatus = test: Antifungal activity against Aspergillus fumigatus Af293 at 5 mg/mL after 48 hrs; type: functional; conditions: Af293, 48 h, read-out: DIZ
Aspergillus flavus = test: Antifungal activity against Aspergillus flavus 3372 at 5 mg/mL after 48 hrs; type: functional; conditions: Aspergillus flavus, 3372, 48 h; read-out: DIZ
[1] = Toxicity against brine shrimp larvae assessed as mortality at 1000 ug/mL after 24 hrs by binocular microscopic analysis relative to control; type: organism-based; conditions: artemia salina, in vivo
Candida albicans = test: Antifungal activity against Candida albicans at 5 mg/mL after 48 hrs; type: functional; conditions: read-out: DIZ
[2] = tested on: Chromobacterium violaceum; test: Antiquorum-sensing activity against Chromobacterium violaceum ATCC 12472 after 48 hrs; type: functional
Bacillus cereus = test: Antibacterial activity against Bacillus cereus at 5 mg/mL after 24 hrs; type: functional; conditions: read-out: DIZ
[3] = Toxicity against brine shrimp larvae assessed as mortality at 500 ug/mL after 24 hrs by binocular microscopic analysis relative to control; type: organism-based; conditions: artemia salina, in vivo
Escherichia coli = test: Antibacterial activity against Escherichia coli at 5 mg/mL after 24 hrs; type: functional; conditions: read-out: DIZ
[4] = Toxicity against brine shrimp larvae assessed as mortality at 100 ug/mL after 24 hrs by binocular microscopic analysis relative to control; type: organism-based; conditions: artemia salina, in vivo
[5] = Toxicity against brine shrimp larvae assessed as mortality at 10 ug/mL after 24 hrs by binocular microscopic analysis relative to control; type: organism-based; conditions: artemia salina, in vivo
Staphylococcus aureus = test: Antibacterial activity against Staphylococcus aureus at 5 mg/mL after 24 hrs; type: functional; conditions: read-out: DIZ
Artemia salina = test: (§1) Toxicity against brine shrimp larvae assessed as mortality after 24 hrs by binocular microscopic analysis; type: organism-based; conditions: in vivo, 24 h
[6] = as §1; type: organism-based; conditions: artemia salina, in vivo

SMILES	zone of inhibition at 5000 µg/mL (Aspergillus fumigatus)	zone of inhibition at 5000 µg/mL (Aspergillus flavus)	mortality at 24 h, 1000 ug/mL [1]	zone of inhibition at 5000 µg/mL (Candida albicans)	diameter of the inhibition zone (DIZ) [2]	zone of inhibition at 5000 µg/mL (Bacillus cereus)	mortality at 24 h, 500 ug/mL [3]	zone of inhibition at 5000 µg/mL (Escherichia coli)	mortality at 24 h, 100 ug/mL [4]	mortality at 24 h, 10 ug/mL [5]	zone of inhibition at 5000 µg/mL (Staphylococcus aureus)	LC90 (Artemia salina)	LC50 at 24 h [6]
NS(=O)(=O)C1=NN2CCC(=O)N=C2S1	8 mm	10 mm	100%	12 mm	<2 mm	4 mm	96.6%	11 mm	90%	70%	16 mm	717.7 µg/mL (≈ 3060 µM)	399 µg/mL (≈ 1700 µM)
COc1ccc2c(c1)CCC1=C2N=C2SC(S(N)(=O)=O)=NN2C1c1ccc(Cl)cc1 (stereo unspecified)	< 2 mm	< 2 mm	96.6%	< 2 mm	<2 mm	< 2 mm	80%	< 2 mm	66.6%	50%	< 2 mm	788.78 µg/mL (≈ 1710 µM)	438 µg/mL (≈ 951 µM)
OC(Cn1cncn1)(Cn1cncn1)c1ccc(F)cc1F [FLUCONAZOLE]	< 2 mm	< 2 mm		22 mm									
NS(=O)(=O)C1=NN2CC(=O)N=C2S1	< 2 mm	< 2 mm		5 mm	<2 mm	< 2 mm		< 2 mm			< 2 mm		
Cc1ccc(/N=N/c2c(N)n3nc(S(N)(=O)=O)sc3nc2=O)cc1	6 mm	5 mm	100%	12 mm	12 mm	3 mm	100%	4 mm	96.6%	90%	8 mm	706.43 µg/mL (≈ 1930 µM)	392 µg/mL (≈ 1070 µM)
CCOC(=O)C1C(=O)N=C2SC(S(N)(=O)=O)=NN2C1c1ccc(Cl)cc1 (stereo unspecified)	< 2 mm	< 2 mm	83.3%	< 2 mm	11 mm	4 mm	70%	< 2 mm	53.3%	36.6%	3 mm	914.63 µg/mL (≈ 2190 µM)	508 µg/mL (≈ 1220 µM)
COc1ccc(/C=C2\C(=O)N=C3SC(S(N)(=O)=O)=NN32)cc1OC	16 mm	7 mm	96.6%	4 mm	<2 mm	4 mm	86.6%	< 2 mm	76.6%	63.3%	4 mm	765.3 µg/mL (≈ 2080 µM)	425 µg/mL (≈ 1150 µM)
Nc1c(/N=N/c2ccc(Br)cc2)c(=O)nc2sc(S(N)(=O)=O)nn12	4 mm	< 2 mm	90%	6 mm	12 mm	5 mm	80%	< 2 mm	66.6%	46.6%	9 mm	827.2 µg/mL (≈ 1920 µM)	460 µg/mL (≈ 1070 µM)
COc1ccc(/N=N/c2c(N)n3nc(S(N)(=O)=O)sc3nc2=O)cc1	< 2 mm	5 mm	100%	6 mm	11 mm	3 mm	93.3%	5 mm	86.6%	73.3%	8 mm	726.97 µg/mL (≈ 1910 µM)	404 µg/mL (≈ 1060 µM)
Nc1c(/N=N/c2ccccc2)c(=O)nc2sc(S(N)(=O)=O)nn12	< 2 mm	< 2 mm	96.6%	4 mm	<2 mm	7 mm	90%	10 mm	80%	66.6%	7 mm	755.03 µg/mL (≈ 2150 µM)	419 µg/mL (≈ 1190 µM)
O=c1[nH]cc(F)c(=O)[nH]1 [FLUOROURACIL]			100%				90%		83.3%	63.3%		736.49 µg/mL (≈ 5660 µM)	409 µg/mL (≈ 3150 µM)
COc1ccc(C2C(C#N)C(=O)N=C3SC(S(N)(=O)=O)=NN32)cc1OC (stereo unspecified)	8 mm	< 2 mm	70%	24 mm	8 mm	9 mm	60%	< 2 mm	50%	36.6%	10 mm	1076.55 µg/mL (≈ 2720 µM)	598 µg/mL (≈ 1510 µM)
CCOC(=O)C1C(=O)N=C2SC(S(N)(=O)=O)=NN2C1c1ccc(OC)c(OC)c1 (stereo unspecified)	< 2 mm	< 2 mm	93.3%	4 mm	8 mm	7 mm	83.3%	< 2 mm	70%	50%	8 mm	796.46 µg/mL (≈ 1800 µM)	442 µg/mL (≈ 1000 µM)
NS(=O)(=O)C1=NN2C(=NC(=O)/C2=C\c2ccc(Br)cc2)S1	< 2 mm	< 2 mm	80%	8 mm	<2 mm	2 mm	60%	< 2 mm	40%	23.3%	2 mm	992.28 µg/mL (≈ 2560 µM)	551 µg/mL (≈ 1420 µM)
COc1ccc2c(c1)CCC1=C2N=C2SC(S(N)(=O)=O)=NN2C1c1ccc(OC)c(OC)c1 (stereo unspecified)			93.3%				76.6%		63.3%	46.6%		819.67 µg/mL (≈ 1680 µM)	455 µg/mL (≈ 936 µM)
COc1ccc2c(c1)CCC1=C2N=C2SC(S(N)(=O)=O)=NN2C1c1ccc(Br)cc1 (stereo unspecified)	6 mm	< 2 mm		14 mm	<2 mm	< 2 mm		< 2 mm			< 2 mm		
N#CC1C(=O)N=C2SC(S(N)(=O)=O)=NN2C1c1ccc(Cl)cc1 (stereo unspecified)	6 mm	< 2 mm	66.6%	8 mm	11 mm	< 2 mm	50%	< 2 mm	36.6%	23.3%	< 2 mm	1187.33 µg/mL (≈ 3210 µM)	660 µg/mL (≈ 1780 µM)
NS(=O)(=O)C1=NN2C(=O)c3ccccc3NC(c3ccsc3)/N=C\2S1 (stereo unspecified)	< 2 mm	< 2 mm	86.6%	< 2 mm	6 mm	< 2 mm	76.6%	< 2 mm	66.6%	46.6%	< 2 mm	858.77 µg/mL (≈ 2180 µM)	477 µg/mL (≈ 1210 µM)
N=c1cc(N)n2nc(S(N)(=O)=O)sc2n1	< 2 mm	< 2 mm		< 2 mm	<2 mm	< 2 mm		< 2 mm			< 2 mm		
CC1(C)S[C@@H]2[C@H](NC(=O)[C@H](N)c3ccccc3)C(=O)N2[C@H]1C(=O)O [AMPICILLIN]						3.5 mm		23 mm			14 mm		
CN(C)c1ccc(C2C(C#N)C(=O)N=C3SC(S(N)(=O)=O)=NN32)cc1 (stereo unspecified)	8 mm	< 2 mm	100%	32 mm	6 mm	6 mm	96.6%	< 2 mm	86.6%	70%	7 mm	719.42 µg/mL (≈ 1900 µM)	400 µg/mL (≈ 1060 µM)

— ChEMBL document CHEMBL2375302, “Synthesis, antimicrobial, antiquorum-sensing, antitumor and cytotoxic activities of new series of fused [1,3,4]thiadiazoles” (Eur J Med Chem, 2013)
